The text below walks through data of ChEMBL document CHEMBL1139224, “Discovery and metabolic stabilization of potent and selective 2-amino-N-(adamant-2-yl) acetamide 11beta-hydroxysteroid dehydrogenase type 1 inhibitors” (J Med Chem, 2007).

By CLint scaled is commonly meant the rate of metabolic loss divided by the concentration. A high value points to rapid turnover. In general, IC50 refers to the point on the concentration scale where inhibition reaches its midpoint. A higher IC50 goes with weaker potency. As usually defined, the half-life is the time needed for the level to fall by half in the phase considered. Low values mean rapid decline, high ones slow decline. By Ki is commonly meant the dissociation constant of the complex between target and ligand, obtained from inhibition or displacement. A higher Ki goes with lower affinity. A word on the bioavailability: it is dose-corrected exposure relative to a reference, in per cent. A low value points to poor availability. What is called clearance is the rate of elimination divided by the concentration. As a reminder, the inhibition is the percentage by which the read-out fell short of the control. Read a high inhibition as a strong effect.

Data set [1] is described as follows: Intrinsic clearance in mouse liver microsomes at 1 uM. It is filed as ADME, Microsome.
The target of data set [2] is T1, 11-beta-hydroxysteroid dehydrogenase 1 (Homo sapiens, UniProt P28845). Put plainly: Inhibition of human 11beta-HSD1 expressed in HEK293 cells by FPIA. It is filed as cell-based.
Data set [3] has as its target T2, 11-beta-hydroxysteroid dehydrogenase type 2 (Mus musculus, UniProt P51661).
T2 sequence (P51661 whole entry): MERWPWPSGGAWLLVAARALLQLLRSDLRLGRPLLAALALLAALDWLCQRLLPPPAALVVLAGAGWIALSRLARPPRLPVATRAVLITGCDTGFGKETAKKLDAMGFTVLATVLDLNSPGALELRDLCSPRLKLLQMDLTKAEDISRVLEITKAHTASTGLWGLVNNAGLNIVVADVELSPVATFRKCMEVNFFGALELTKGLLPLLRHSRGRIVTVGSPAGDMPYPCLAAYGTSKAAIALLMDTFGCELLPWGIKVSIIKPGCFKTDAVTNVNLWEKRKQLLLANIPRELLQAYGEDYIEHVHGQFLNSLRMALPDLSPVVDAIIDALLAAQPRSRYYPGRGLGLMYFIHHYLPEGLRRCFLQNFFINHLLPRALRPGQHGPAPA
Put plainly: Inhibitory activity against mouse 11beta-HSD2 by SPA.

A short description of data set [4]: Half life in rat at 5 mg/kg, iv. It is filed as ADME, organism-based. Also noted: dose 5 mg/kg, route intravenous. The settings on record: in vivo.
Data set [5] addresses 11-beta-hydroxysteroid dehydrogenase 1 (Rattus norvegicus, UniProt P16232). Put plainly: Inhibitory activity against rat 11beta-HSD1.
Data set [6] can be described thus: Intrinsic clearance in rat liver microsomes at 1 uM. The class given is ADME, Microsome.
For data set [7], the target named is 11-beta-hydroxysteroid dehydrogenase 1 (Mus musculus, UniProt P50172). Put plainly: Inhibition of mouse 11beta-HSD1 expressed in Escherichia coli by SPA.
A short description of data set [8]: Intrinsic clearance in human liver microsomes at 1 uM. It is filed as ADME, Microsome. (In general: Liver microsomes are a subcellular fraction often used to study metabolism.)
The target of data set [9] is T1, 11-beta-hydroxysteroid dehydrogenase 1. Put plainly: Inhibition of human 11beta-HSD1 expressed in Escherichia coli by SPA.
Data set [10] is described as follows: Oral bioavailability in rat at 5 mg/kg, po. It is filed as ADME, organism-based. The settings on record: in vivo.
Data set [11] in a line: Half life in rat at 5 mg/kg, po. It is filed as ADME, organism-based. Also noted: dose 5 mg/kg, route oral. Conditions: in vivo.
Data set [12] deals with T3, 11-beta-hydroxysteroid dehydrogenase type 2 (Rattus norvegicus, UniProt P50233).
T3 sequence (P50233 whole entry): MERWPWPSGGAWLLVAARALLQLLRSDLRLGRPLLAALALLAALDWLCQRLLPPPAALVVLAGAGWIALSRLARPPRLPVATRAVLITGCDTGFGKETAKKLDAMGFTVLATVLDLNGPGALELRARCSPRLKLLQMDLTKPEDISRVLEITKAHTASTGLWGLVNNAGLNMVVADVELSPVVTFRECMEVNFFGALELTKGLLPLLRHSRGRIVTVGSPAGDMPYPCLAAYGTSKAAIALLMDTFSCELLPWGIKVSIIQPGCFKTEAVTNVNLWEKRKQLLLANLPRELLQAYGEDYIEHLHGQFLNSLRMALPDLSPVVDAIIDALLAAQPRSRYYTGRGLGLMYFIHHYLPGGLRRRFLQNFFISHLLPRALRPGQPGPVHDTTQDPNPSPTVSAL
Put plainly: Inhibitory activity against rat 11beta-HSD2.

Data set [13] in a line: Volume of distribution in rat at 5 mg/kg, iv. The class given is ADME, organism-based. More on the design: dose 5 mg/kg, route intravenous. The settings on record: in vivo, read-out: Vss.
A further data set has as its system Rattus norvegicus. Put plainly: Area under the curve in rat at 5 mg/kg, po. Also noted: dose 5 mg/kg, route oral. Conditions: in vivo. The class given is ADME, organism-based.
A short description of data set [14]: Plasma clearance in rat at 5 mg/kg, iv. It is filed as ADME, organism-based. More on the design: dose 5 mg/kg, route intravenous.
The target of data set [15] is T4, 11-beta-hydroxysteroid dehydrogenase type 2 (Homo sapiens, UniProt P80365).
T4 sequence (P80365 whole entry): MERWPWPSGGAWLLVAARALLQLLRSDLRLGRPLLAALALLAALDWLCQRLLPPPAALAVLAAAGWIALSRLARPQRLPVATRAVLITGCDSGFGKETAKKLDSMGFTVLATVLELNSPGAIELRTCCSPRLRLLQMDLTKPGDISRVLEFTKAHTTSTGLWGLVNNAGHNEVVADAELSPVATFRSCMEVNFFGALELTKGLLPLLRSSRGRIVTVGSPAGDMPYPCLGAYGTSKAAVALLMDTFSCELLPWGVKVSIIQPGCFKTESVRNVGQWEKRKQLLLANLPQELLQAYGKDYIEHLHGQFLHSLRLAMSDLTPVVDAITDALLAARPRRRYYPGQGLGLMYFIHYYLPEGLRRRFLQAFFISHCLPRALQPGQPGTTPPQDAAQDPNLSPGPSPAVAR
Put plainly: Inhibitory activity against human 11beta-HSD2 by SPA.

A further data set relates to Mus musculus. Put plainly: AUC in mouse at 10 mg/kg, po. It is filed as ADME, organism-based, Plasma. Also noted: dose 10 mg/kg, route oral. The settings on record: in vivo.
The nature of data set [16]: Half life in mouse at 10 mg/kg, iv. It is filed as ADME, organism-based. The settings on record: in vivo. Also noted: dose 10 mg/kg, route intravenous.
Data set [17] in a line: Half life in mouse at 10 mg/kg, po. It is filed as ADME, organism-based. More on the design: dose 10 mg/kg, route oral. The settings on record: in vivo.
Data set [18] has as its target 11-beta-hydroxysteroid dehydrogenase 1 (Mus musculus) (UniProt P50172). Put plainly: Inhibition of mouse 11beta-HSD1 in DIO mouse liver at 30 mg/kg, po after 7 hrs. The class given is organism-based. Also noted: dose 30 mg/kg.
Data set [19] can be described thus: Volume of distribution in mouse at 10 mg/kg, iv. The class given is ADME, organism-based. Also noted: dose 10 mg/kg, route intravenous. Conditions: in vivo, read-out: Vdss.
Data set [20] addresses 11-beta-hydroxysteroid dehydrogenase 1 (Mus musculus) (UniProt P50172). Put plainly: Inhibition of mouse 11beta-HSD1 in DIO mouse brain at 30 mg/kg, po after 7 hrs. The class given is organism-based. More on the design: dose 30 mg/kg.
For data set [21] the target is unchanged. Put plainly: Inhibition of mouse 11beta-HSD1 in DIO mouse brain at 30 mg/kg, po after 1 hr. It is filed as organism-based. Also noted: dose 30 mg/kg.
The nature of data set [22]: Plasma clearance in mouse at 10 mg/kg, iv. It is filed as ADME, organism-based. Also noted: dose 10 mg/kg, route intravenous.
Data set [23] concerns the target 11-beta-hydroxysteroid dehydrogenase 1 (Mus musculus) (UniProt P50172). Put plainly: Inhibition of mouse 11beta-HSD1 in DIO mouse adipose tissue at 30 mg/kg, po after 1 hr. The class given is organism-based. More on the design: dose 30 mg/kg.
Data set [24] can be described thus: Oral bioavailability in mouse at 10 mg/kg, po. The settings on record: in vivo. It is filed as ADME, organism-based.
Data set [25] addresses 11-beta-hydroxysteroid dehydrogenase 1 (Mus musculus) (UniProt P50172). Put plainly: Inhibition of mouse 11beta-HSD1 in DIO mouse liver at 30 mg/kg, po after 1 hr. Also noted: dose 30 mg/kg. The class given is organism-based.
For data set [26] the target is unchanged. Put plainly: Inhibition of mouse 11beta-HSD1 in DIO mouse adipose tissue at 30 mg/kg, po after 7 hrs. The class given is organism-based. Also noted: dose 30 mg/kg.

T1 sequence (P28845 whole entry): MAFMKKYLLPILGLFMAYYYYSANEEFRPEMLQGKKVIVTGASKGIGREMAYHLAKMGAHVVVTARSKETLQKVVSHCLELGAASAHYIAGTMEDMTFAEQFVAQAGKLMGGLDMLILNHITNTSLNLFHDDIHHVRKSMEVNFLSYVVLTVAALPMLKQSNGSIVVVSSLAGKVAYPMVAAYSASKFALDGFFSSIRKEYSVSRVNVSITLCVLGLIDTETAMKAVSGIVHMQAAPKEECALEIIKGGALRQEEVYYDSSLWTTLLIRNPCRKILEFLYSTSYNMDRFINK
Chain of 11-beta-hydroxysteroid dehydrogenase 1 (Mus musculus) (P50172 whole entry, looked up): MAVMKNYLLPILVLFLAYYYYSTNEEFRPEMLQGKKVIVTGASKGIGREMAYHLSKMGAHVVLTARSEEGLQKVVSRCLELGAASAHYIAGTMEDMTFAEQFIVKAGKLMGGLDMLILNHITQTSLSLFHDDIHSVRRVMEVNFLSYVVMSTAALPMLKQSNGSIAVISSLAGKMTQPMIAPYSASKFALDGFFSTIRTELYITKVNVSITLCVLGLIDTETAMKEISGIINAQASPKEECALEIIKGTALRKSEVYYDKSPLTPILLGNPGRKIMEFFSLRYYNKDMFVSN
Chain of 11-beta-hydroxysteroid dehydrogenase 1 (Mus musculus, UniProt P50172) (P50172 whole entry): as the sequence (P50172 whole entry, looked up) above
Chain of 11-beta-hydroxysteroid dehydrogenase 1 (Rattus norvegicus, UniProt P16232) (P16232 whole entry): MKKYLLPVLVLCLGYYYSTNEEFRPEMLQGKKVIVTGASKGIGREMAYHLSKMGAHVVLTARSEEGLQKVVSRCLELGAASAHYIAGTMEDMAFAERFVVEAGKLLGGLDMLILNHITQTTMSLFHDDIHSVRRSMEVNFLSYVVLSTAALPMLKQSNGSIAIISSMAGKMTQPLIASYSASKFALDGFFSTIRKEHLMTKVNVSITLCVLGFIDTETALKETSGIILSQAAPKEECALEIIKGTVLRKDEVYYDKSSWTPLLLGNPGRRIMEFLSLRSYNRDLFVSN

`O=C(CN1CCN(c2ccc(C(F)(F)F)cn2)CC1)N[C@H]1C2CC3CC1C[C@](O)(C3)C2`: the CLint scaled at 1 µM in [1] was 683 mL/min/kg; in [6], below 50 mL/min/kg; in data set [8], 16.7 mL/min/kg. Besides, the IC50 in data set [2] was 130 nM; in data set [3] it was above 100000 nM; in data set [12], above 100000 nM; in [15] it was above 100000 nM. Further, the half-life in [4] is 1.4 h; in data set [11], 1.3 h. Also, the inhibition constant Ki came out at 6 nM in data set [5], 34 nM in data set [7] and 8 nM in [9]. Besides, in data set [10], the bioavailability amounted to 65%. Also, the Vd in [13] was 2.2 L/kg. The AUC with Rattus norvegicus is given as 2.4 ug/hr.ml. In data set [14], this compound gave a clearance of 23.3 mL/min/kg.

For the compound `CC(C(=O)N[C@H]1C2CC3CC1C[C@](O)(C3)C2)N1CCN(c2ccc(C(F)(F)F)cn2)CC1` (mixture of isomers), the figures for the AUC in the data set with Mus musculus and in the data set with Rattus norvegicus were 1.9 ug/hr.ml and 1 ug/hr.ml, respectively. Besides, the half-life is 0.4 h in [16], 1 h in data set [17], 1 h in data set [4] and 1.6 h in [11]. Further, the inhibition in data set [18] was found to be 9%; in data set [20] it was 25%; in data set [21], 37%; in [23] it was 51%; in data set [25], 36%; in data set [26], 16%. Further, the Vd in [19] is 1.6 L/kg; in data set [13] it was 1 L/kg. Moreover, the figures for the CLint scaled at 1 µM in data set [1], in data set [6] and in data set [8] were 117 mL/min/kg, 83.3 mL/min/kg and 50 mL/min/kg, respectively. For the same compound, the figures for the clearance in [22] and in data set [14] were 55 mL/min/kg and 33.3 mL/min/kg, respectively. Moreover, the 50% inhibitory concentration (IC50) in data set [2] was 29 nM; in [3], above 100000 nM; in data set [12], above 100000 nM; in data set [15], above 100000 nM. Also, the Ki in data set [5] was 4 nM; in data set [7], 15 nM; in [9], 5 nM. The figures for the bioavailability in data set [24] and in data set [10] were 65% and 37%, respectively.
